Literature values in patent US20220000834A1, “NOVEL ADMINISTRATION METHOD” (SUMITOMO DAINIPPON PHARMA CO., LTD., priority 2019, published 2022).

B1: Sema3A: class 3 semaphorin; suppresses growth of neurite growth cone (protein, UniProt Q14563 21-771, looked up)
Semaphorin-3A: NYQNGKNNVPRLKLSYKEMLESNNVITFNGLANSSSYHTFLLDEERSRLYVGAKDHIFSFDLVNIKDFQKIVWPVSYTRRDECKWAGKDILKECANFIKVLKAYNQTHLYACGTGAFHPICTYIEIGHHPEDNIFKLENSHFENGRGKSPYDPKLLTASLLIDGELYSGTAADFMGRDFAIFRTLGHHHPIRTEQHDSRWLNDPKFISAHLISESDNPEDDKVYFFFRENAIDGEHSGKATHARIGQICKNDFGGHRSLVNKWTTFLKARLICSVPGPNGIDTHFDELQDVFLMNFKDPKNPVVYGVFTTSSNIFKGSAVCMYSMSDVRRVFLGPYAHRDGPNYQWVPYQGRVPYPRPGTCPSKTFGGFDSTKDLPDDVITFARSHPAMYNPVFPMNNRPIVIKTDVNYQFTQIVVDRVDAEDGQYDVMFIGTDVGTVLKVVSIPKETWYDLEEVLLEEMTVFREPTAISAMELSTKQQQLYIGSTAGVAQLPLHRCDIYGKACAECCLARDPYCAWDGSACSRYFPTAKRRTRRQDIRNGDPLTHCSDLHHDNHHGHSPEERIIYGVENSSTFLECSPKSQRALVYWQFQRRNEERKEEIRVDDHIIRTDQGLLLRSLQQKDSGNYLCHAVEHGFIQTLLKVTLEVIDTEHLEELLHKDDDGDGSKTKEMSNSMTPSQKVWYRDFMQLINHPNLNTMDEFCEQVWKRDRKQRRQRPGHTPGNSNKWKHLQENKKGRNRRTHEFERAPRSV

Experiments:
[1] = tested on: nerves in an injured part; details: Patent Documents 1 and 2
nerve cells = details: as low as

Molecule	regeneration of nerves in an injured part [1]	concentration inducing regression of nerve cells (nerve cells)
CC(=O)c1cc2c(=O)c3c(C(=O)O)c(O)c(O)cc3oc2c(C(C)=O)c1-c1coc2cc(O)c(O)c(C(=O)O)c2c1=O [compound A]	accelerates the regeneration of nerves in an injured part	–
B1	–	10 pM
